Measurements taken from patent EP3964211A1, “A COMPOSITION COMPRISING AN ASCORBYL PHOSPHATE, NIACINAMIDE AND ALLANTOIN FOR TREATING ACNE” (DSM IP Assets B.V., priority 2020, dated 2022).
Like-named read-outs stand apart in the source and are kept apart here.

Test system: C. acnes (ATCC reference 11827)
Test: Cutibacterium acnes Time-Kill assay
Format: cell-based
Experimental: Sodium ascorbyl phosphate, niacinamide, allantoin as well as a combination thereof were screened for their potential anti-microbial activities against C. acnes (ATCC reference 11827). The action of ingredients and combinations thereof is assessed through a miniaturized method performed in liquid media in 96 deepwell plates format. The inhibition of the growth of C. acnes is compared to the same strain growth in corresponding optimal media.
The different ingredients are mixed in growth medium (final volume 2mL) in deepwell plates (n=3). Analysis controls are prepared and used identically to samples : • A growth control of Cutibacterium acnes in the corresponding culture medium; • A growth control of Cutibacterium acnes with ethanol at 2,5 % (v/v) directly in the culture medium; • A growth control of microorganisms with olive oil at 5 % (v/v) directly in the culture medium; • A control consisting of Salicylic acid at 0.5% directly in the culture medium Then, samples are contaminated with C. acnes, inoculum at final concentration of 3,7 x10^5 cfu/mL, […]
To perform the counting, aliquots of the contaminated samples are serially diluted (decimal dilutions) in culture medium in 96-well plates with triphenyltetrazolium and incubated at 37°C ± 2,5°C during 48 h. After 48 h at the optimal growing conditions, the last dilution showing a pink color (triphenyltetrazolium) or turbidity indicates the contamination rate and allow the determination of the corresponding microbial population.

[1] = 2 h, read-out: Log-step reduction (2h)

SMILES: NC(=O)NC1NC(=O)NC1=O (centres unmarked) [Allantoin, 2,5-dioxo-4-imidazolidinyl urea]
- log reduction at 0.5 % (0.5 wt.-% in growth medium, 2h, compared to initial log/cfu of 5.6, n=3, read-out: Log-step reduction (2h)): 0.6

SMILES: NC(=O)c1cccnc1 [Niacinamide, pyridine-3-carboxamide]
- log reduction at 3 % [1]: 0.7

SMILES: O=C(O)c1ccccc1O [Salicylic acid, reference compound]
- log reduction at 0.5 % [1]: 3
- log reduction at 0.5 % (2.5 h, read-out: log-step reduction of C. acnes): 3

SMILES: O=C1O[C@H]([C@@H](O)CO)C(O)=C1OP(=O)(O)O [Sodium ascorbyl phosphate, sodium ascorbyl phosphate]
- log reduction at 3 % (3 wt.-% in growth medium, 2h, compared to initial log/cfu of 5.6, n=3, read-out: Log-step reduction (2h)): 1.7
